The results in this text go back to patent publication US6803374B2, “Compounds useful for treating hepatitis C virus” (priority 2001, dated 2004).

pIC50: −log10 of the molar value.

The assay has as its target T1, HCV NS5B RdRp genotype 1b (Hepatitis C virus genotype 1b, UniProt Q9WMX2).
T1 construct: The protein was expressed with an 18 amino acid C-terminal truncation to enhance the solubility; made in house; host or cells: E. coli BL21(DE3)
Put plainly: HCV NS5B RdRp enzyme assay. It counts as biochemical. The settings on record: IC50, HCV RdRp genotype 1b enzyme, C-terminal 18 aa truncated; average of single point IC50 values. How it is done:
HCV NS5B RdRp cloning, expression and purification. The cDNA encoding the NS5B protein of HCV, genotype 1b, was cloned into the pET21a expression vector. The protein was expressed with an 18 amino acid C-terminal truncation to enhance the solubility. The E. coli competent cell line BL21(DE3) was used for expression of the protein. Cultures were grown at 37° C. for ˜4 hours until the cultures reached an optical density of 2.0 at 600 nm. The cultures were cooled to 20° C. and induced with 1 mM IPTG. Fresh ampicillin was added to a final concentration of 50 ug/ml and the cells were grown overnight at 20° C.
Cell pellets (3L) were lysed for purification to yield 15-24 mgs of purified NS5B. The lysis buffer consisted of 20 mM Tris-HCl, pH 7.4, 500 mM NaCl, 0.5% triton X-100, 1 mM DTT, 1 mM EDTA, 20% glycerol, 0.5 mg/ml lysozyme, 10 mM MgCl2, 15 ug/ml deoxyribonuclease I, and Complete TM protease inhibitor tablets (Roche). After addition of the lysis buffer, frozen cell pellets were resuspended using a tissue homogenizer. To reduce the viscosity of the sample, aliquots of the lysate were sonicated on ice using a microtip attached to a Branson sonicator. The sonicated lysate was centrifuged at 100,000×g for 1 hr at 4° C. and filtered through a 0.2 μm filter unit (Corning).
The protein was purified using three sequential chromatography steps: Heparin sepharose CL-6B, polyU sepharose 4B, and Hitrap SP sepharose (Pharmacia). The chromatography buffers were identical to the lysis buffer but contained no lysozyme, deoxyribonuclease I, MgCl2 or protease inhibitor and the NaCl concentration of the buffer was adjusted according to the requirements for charging the protein onto the column. Each column was eluted with a NaCl gradient which varied in length from 5-50 column volumes depending on the column type. After the final chromatography step, the resulting purity of the enzyme is >90% based on SDS-PAGE analysis. The enzyme was aliquoted and stored at −80° C.
HCV NS5B RdRp enzyme assay. HCV RdRp genotype 1b assays were run in assay buffer composed of 20 mM Tris-HCl, pH 7.5, 2.5 mM KCl, 5 mM MgCl2, 1 mM DTT, 1.6 U RNAse inhibitor (Promega N2515), in 96 well plates (Falcon 3918). All compounds were serially diluted in DMSO and diluted further in assay buffer such that the final concentration of DMSO in the assay was 2%. Compounds were serially diluted (3-fold each time) for a 7 point inhibition analysis. HCV RdRp genotype 1b enzyme was used at a final concentration of 28 nM. A polyA template was used at 28 nM, and the oligo-dT12-18 primer was used at 840 nM final concentration. Preannealed primer and template were obtained commercially (Amersham 27-787802). ^3H-UTP was used at 0.125 μCi (1 μM total UTP). Reaction was initiated by the addition of enzyme. Reactions were incubated at 30° C. for 45 min, and stopped by adding 30 ul of 20% ice cold TCA. Plates were chilled for 30 minutes and harvested onto Unifilter-96, GF/B plates (Packard, 6005177) using a Packard FilterMate Cell Harvester. The harvest plates were prewashed 3 times, 200 ul/well, with 100 mM NaPPi. Harvested filters were washed 30 times, 200 ul/well, with distilled water followed by ethanol. Filter plates were dried, and 30 ul/well microscint-20 was added. Plates were read on a Packard Top Count NXT.
The IC50 values for compounds were determined using […] different [I], combined with 7 nM enzyme, 800 ng of the template-primer polyC/oligoG12 (1:5 molar ratio), and 0.7 uM of ^3H GTP containing 1 uCi. The observed fractional activity (fa=vi/vo) was used in the equation IC50=[I]/(1/fa-1) to determine a single point IC50 value. Typically, the single point IC50 values derived from [I] that produced fractional activities in the range of 0.1 to 0.8 relative to the uninhibited control were averaged to calculate the IC50 value for each compound.

T1 sequence (Q9WMX2 2420-2992): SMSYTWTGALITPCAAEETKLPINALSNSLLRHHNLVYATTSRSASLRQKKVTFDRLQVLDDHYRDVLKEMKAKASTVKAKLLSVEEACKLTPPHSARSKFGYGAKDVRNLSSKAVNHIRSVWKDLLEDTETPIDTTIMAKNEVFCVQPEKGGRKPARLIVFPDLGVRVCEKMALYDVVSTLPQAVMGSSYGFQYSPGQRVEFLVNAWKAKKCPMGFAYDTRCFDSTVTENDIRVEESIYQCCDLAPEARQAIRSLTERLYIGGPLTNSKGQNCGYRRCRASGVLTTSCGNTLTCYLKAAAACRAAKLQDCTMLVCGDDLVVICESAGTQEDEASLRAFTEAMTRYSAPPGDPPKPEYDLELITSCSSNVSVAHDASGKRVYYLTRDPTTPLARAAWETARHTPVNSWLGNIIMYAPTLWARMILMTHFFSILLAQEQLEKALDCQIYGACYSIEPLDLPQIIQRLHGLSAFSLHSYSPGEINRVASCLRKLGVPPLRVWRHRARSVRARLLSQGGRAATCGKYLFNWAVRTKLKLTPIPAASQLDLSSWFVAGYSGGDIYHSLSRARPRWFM

The pIC50 is −log10 of the IC50, conventionally taken in molar units. High values mean a low IC50, low ones a high IC50. Consider `O=C(NCCCO)c1ccc(-c2ccc(F)c(Cl)c2)c(COc2ccc(-c3nc4cc(-c5nnn[nH]5)ccc4n3C3CCCCC3)cc2)c1` [Example 78], for which the pIC50 is 6.16.
`CNC(=O)c1ccc(-c2ccc(F)c(Cl)c2)c(COc2ccc(-c3nc4cc(-c5nnn[nH]5)ccc4n3C3CCCCC3)cc2)c1` [Example 79] showed a pIC50 of 6.26. This pIC50 and that of the compound before are within 0.2 log units of each other.
In turn, `O=C(c1ccc(-c2ccc(F)c(Cl)c2)c(COc2ccc(-c3nc4cc(-c5nnn[nH]5)ccc4n3C3CCCCC3)cc2)c1)N(CCO)CCO` [Example 81] showed a pIC50 of 5.96.
The figure for `CC(NC(=O)c1ccc(-c2ccc(F)c(Cl)c2)c(COc2ccc(-c3nc4cc(-c5nnn[nH]5)ccc4n3C3CCCCC3)cc2)c1)C(=O)OC(C)(C)C` (stereo not drawn) [Example 82] is 5.89; for `CC(C)(C)OC(=O)C(Cc1ccc(O)cc1)NC(=O)c1ccc(-c2ccc(F)c(Cl)c2)c(COc2ccc(-c3nc4cc(-c5nnn[nH]5)ccc4n3C3CCCCC3)cc2)c1` (stereo not drawn) [Example 83] it is 6.25; for `CC(C)(C)OC(=O)CNC(=O)c1ccc(-c2ccc(F)c(Cl)c2)c(COc2ccc(-c3nc4cc(-c5nnn[nH]5)ccc4n3C3CCCCC3)cc2)c1` [Example 84] it is 5.92.
The same measure for `CC(C)(C)OC(=O)C(Cc1cc2ccccc2[nH]1)NC(=O)c1ccc(-c2ccc(F)c(Cl)c2)c(COc2ccc(-c3nc4cc(-c5nnn[nH]5)ccc4n3C3CCCCC3)cc2)c1` (stereo not drawn) [Example 85]: 5.64; for `O=C(O)CNC(=O)c1ccc(-c2ccc(F)c(Cl)c2)c(COc2ccc(-c3nc4cc(-c5nnn[nH]5)ccc4n3C3CCCCC3)cc2)c1` [Example 86]: 6.49; for `COc1ccc(-c2ccc(C(=O)N3CCOCC3)cc2COc2ccc(-c3nc4cc(-c5nnn[nH]5)ccc4n3C3CCCCC3)cc2)cc1OC` [Example 88]: 6.33.
The same measure for `COc1ccc(-c2ccc(C(=O)N3CCCC3)cc2COc2ccc(-c3nc4cc(-c5nnn[nH]5)ccc4n3C3CCCCC3)cc2)cc1OC` [Example 89]: 6.34; for `COc1ccc(-c2ccc(C(=O)NCCCO)cc2COc2ccc(-c3nc4cc(-c5nnn[nH]5)ccc4n3C3CCCCC3)cc2)cc1OC` [Example 90]: 6.20; for `CNC(=O)c1ccc(-c2ccc(OC)c(OC)c2)c(COc2ccc(-c3nc4cc(-c5nnn[nH]5)ccc4n3C3CCCCC3)cc2)c1` [Example 91]: 6.59.
As to `COc1ccc(-c2ccc(C(=O)N(CCO)CCO)cc2COc2ccc(-c3nc4cc(-c5nnn[nH]5)ccc4n3C3CCCCC3)cc2)cc1OC` [Example 93], the pIC50 was 6.16.
The same measure for `COc1ccc(-c2ccc(C(=O)NC(C)C(=O)OC(C)(C)C)cc2COc2ccc(-c3nc4cc(-c5nnn[nH]5)ccc4n3C3CCCCC3)cc2)cc1OC` (stereo not drawn) [Example 94]: 5.68; for `COc1ccc(-c2ccc(C(=O)NC(Cc3ccc(O)cc3)C(=O)OC(C)(C)C)cc2COc2ccc(-c3nc4cc(-c5nnn[nH]5)ccc4n3C3CCCCC3)cc2)cc1OC` (stereo not drawn) [Example 95]: 5.85; for `COc1ccc(-c2ccc(C(=O)NCC(=O)OC(C)(C)C)cc2COc2ccc(-c3nc4cc(-c5nnn[nH]5)ccc4n3C3CCCCC3)cc2)cc1OC` [Example 96]: 5.80.
As for `COc1ccc(-c2ccc(C(=O)NCC(=O)O)cc2COc2ccc(-c3nc4cc(-c5nnn[nH]5)ccc4n3C3CCCCC3)cc2)cc1OC` [Example 98], the pIC50 was 6.68.
`CNC(=O)c1ccc(-c2ccc(Cl)cc2)c(COc2ccc(-c3nc4cc(-c5nnn[nH]5)ccc4n3C3CCCCC3)cc2)c1` [Example 106] showed a pIC50 of 6.18.
The same measure for `O=C(O)c1ccc(-c2cccs2)c(COc2ccc(-c3nc4cc(-c5nnn[nH]5)ccc4n3C3CCCCC3)cc2)c1` [Example 114]: 7.15; for `O=C(O)c1ccc(-c2ccsc2)c(COc2ccc(-c3nc4cc(-c5nnn[nH]5)ccc4n3C3CCCCC3)cc2)c1` [Example 115]: 7.40; for `O=C(O)c1ccc(-c2cc3ccccc3o2)c(COc2ccc(-c3nc4cc(-c5nnn[nH]5)ccc4n3C3CCCCC3)cc2)c1` [Example 116]: 6.77.
For `O=C(O)c1ccc(-c2ccco2)c(COc2ccc(-c3nc4cc(-c5nnn[nH]5)ccc4n3C3CCCCC3)cc2)c1` [Example 117], the pIC50 is 6.54. Against the preceding compound, the pIC50 is 0.23 log units lower.
`O=C(O)c1ccc(-c2ccc3c(c2)OCO3)c(COc2ccc(-c3nc4cc(-c5nnn[nH]5)ccc4n3C3CCCCC3)cc2)c1` [Example 118] gave a pIC50 of 7.15.
The figure for `O=C(O)c1ccc(-c2cc3ccccc3s2)c(COc2ccc(-c3nc4cc(-c5nnn[nH]5)ccc4n3C3CCCCC3)cc2)c1` [Example 119] is 7.52.
`CC(=O)c1ccc(-c2ccc(C(=O)O)cc2COc2ccc(-c3nc4cc(-c5nnn[nH]5)ccc4n3C3CCCCC3)cc2)s1` [Example 120] had a pIC50 of 7.70.
The same measure for `O=C(O)c1ccc(-c2ccc3[nH]ccc3c2)c(COc2ccc(-c3nc4cc(-c5nnn[nH]5)ccc4n3C3CCCCC3)cc2)c1` [Example 121]: 7.52.
Compound `O=Cc1ccoc1-c1ccc(C(=O)O)cc1COc1ccc(-c2nc3cc(-c4nnn[nH]4)ccc3n2C2CCCCC2)cc1` [Example 122] showed a pIC50 of 6.17.
Compound `O=C(O)c1ccc(-c2cccc3cccnc23)c(COc2ccc(-c3nc4cc(-c5nnn[nH]5)ccc4n3C3CCCCC3)cc2)c1` [Example 123] gave a negative-log IC50 (pIC50) of 6.36.
The figure for `O=C(NC(Cc1ccc(O)cc1)C(=O)O)c1ccc(-c2ccsc2)c(COc2ccc(-c3nc4cc(-c5nnn[nH]5)ccc4n3C3CCCCC3)cc2)c1` (stereo not drawn) [Example 129] is 6.54; for `NC(=O)CCNC(=O)c1ccc(-c2ccsc2)c(COc2ccc(-c3nc4cc(-c5nnn[nH]5)ccc4n3C3CCCCC3)cc2)c1` [Example 131] it is 6.64.
The figure for `CN1CCN(C(=O)c2ccc(-c3ccsc3)c(COc3ccc(-c4nc5cc(-c6nnn[nH]6)ccc5n4C4CCCCC4)cc3)c2)CC1` [Example 132] is 6.08; for `O=C(c1ccc(-c2ccsc2)c(COc2ccc(-c3nc4cc(-c5nnn[nH]5)ccc4n3C3CCCCC3)cc2)c1)N1CCOCC1` [Example 133] it is 5.96.
The figure for `O=C(c1ccc(-c2ccsc2)c(COc2ccc(-c3nc4cc(-c5nnn[nH]5)ccc4n3C3CCCCC3)cc2)c1)N1CCCC1` [Example 134] is 6.43; for `O=C(NCCCO)c1ccc(-c2ccsc2)c(COc2ccc(-c3nc4cc(-c5nnn[nH]5)ccc4n3C3CCCCC3)cc2)c1` [Example 135] it is 6.15; for `CNC(=O)c1ccc(-c2ccsc2)c(COc2ccc(-c3nc4cc(-c5nnn[nH]5)ccc4n3C3CCCCC3)cc2)c1` [Example 136] it is 6.66.
As to `O=C(c1ccc(-c2ccsc2)c(COc2ccc(-c3nc4cc(-c5nnn[nH]5)ccc4n3C3CCCCC3)cc2)c1)N1CCC(O)CC1` [Example 137], the negative-log IC50 (pIC50) is 5.89. This pIC50 is 0.77 log units lower than that of the compound before.
Regarding `O=C(c1ccc(-c2ccsc2)c(COc2ccc(-c3nc4cc(-c5nnn[nH]5)ccc4n3C3CCCCC3)cc2)c1)N(CCO)CCO` [Example 138], the pIC50 is 5.52.
Regarding `CC(C)(C)OC(=O)C(Cc1ccc(O)cc1)NC(=O)c1ccc(-c2ccsc2)c(COc2ccc(-c3nc4cc(-c5nnn[nH]5)ccc4n3C3CCCCC3)cc2)c1` (stereo not drawn) [Example 140], the pIC50 was 5.67.
In the case of `CC(C)(C)OC(=O)CNC(=O)c1ccc(-c2ccsc2)c(COc2ccc(-c3nc4cc(-c5nnn[nH]5)ccc4n3C3CCCCC3)cc2)c1` [Example 141], the pIC50 was 5.55. The pIC50 values of the last two compounds are within 0.2 log units of each other.
